According to ChEMBL document CHEMBL1201862, “PubChem BioAssay data set” (2004):
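48-hour exposure; five concentrations; linearly interpolated endpoints. The concentration for 50% growth inhibition is given as GI50.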 Active and inactive are the calls of the source. Cut-off read from the data, not from the text of the source: active = GI50 up to about 1.1 µM and inactive = higher.

How the values were obtained:
Experiment in all cases: growth of human tumour cells (NCI), 48 h
SN12C = system: SN12C
SK-MEL-28 = system: SK-MEL-28
OVCAR-8 = system: OVCAR-8
SNB-19 = system: SNB-19
M14 = system: M14
HCT-15 = system: HCT-15
UO-31 = system: UO-31
RXF 631 = system: RXF 631
HOP-18 = system: HOP-18
SF-268 = system: SF-268
SK-MEL-5 = system: SK-MEL-5
NCI-H522 = system: NCI-H522
COLO 205 = system: COLO 205
ACHN = system: ACHN
EKVX = system: EKVX
MOLT-4 = system: MOLT-4
HT-29 = system: HT-29
Malme-3M = system: Malme-3M
K562 = system: K562
SF-539 = system: SF-539
HL-60 = system: HL-60
UACC-62 = system: UACC-62
IGROV-1 = system: IGROV-1
HOP-92 = system: HOP-92
NCI-H460 = system: NCI-H460
NCI-H226 = system: NCI-H226
SF-295 = system: SF-295
LOX IMVI = system: LOX IMVI
SNB-75 = system: SNB-75
U-251 = system: U-251
M19-MEL = system: M19-MEL
SK-OV-3 = system: SK-OV-3
KM-20L2 = system: KM-20L2
OVCAR-3 = system: OVCAR-3
SW-620 = system: SW-620
CAKI-1 = system: CAKI-1
DMS-114 = system: DMS-114
A498 = system: A498
RPMI-8226 = system: RPMI-8226
TK-10 = system: TK-10
NCI-H23 = system: NCI-H23
CCRF-CEM = system: CCRF-CEM
SK-MEL-2 = system: SK-MEL-2
LXFL 529 = system: LXFL 529
DMS-273 = system: DMS-273
SNB-78 = system: SNB-78
RXF 393 = system: RXF 393
SR = system: SR
A549 = system: A549
786-0 = system: 786-0
UACC-257 = system: UACC-257
KM12 = system: KM12
DLD-1 = system: DLD-1
HCT-116 = system: HCT-116
OVCAR-4 = system: OVCAR-4
HCC 2998 = system: HCC 2998
OVCAR-5 = system: OVCAR-5
HOP-62 = system: HOP-62

With `COC(=O)NN1C(=O)C(=P(c2ccccc2)(c2ccccc2)c2ccccc2)C(C(=O)OC)=C1C` the GI50 (SN12C) was > 100 µM (inactive), the GI50 (SK-MEL-28) was > 100 µM (inactive) and the GI50 (OVCAR-8) was > 100 µM (inactive). For the same compound, the GI50 (SNB-19) was > 100 µM (inactive), the GI50 (M14) was > 100 µM (inactive) and the GI50 (HCT-15) was greater than 100 µM. For the same compound, the GI50 (UO-31) was > 100 µM (inactive), the GI50 (RXF 631) was > 100 µM (inactive) and the GI50 (HOP-18) was > 100 µM (inactive). For the same compound, the GI50 (SF-268) was > 100 µM (inactive), the GI50 (SK-MEL-5) was > 100 µM (inactive) and the GI50 (NCI-H522) was > 100 µM (inactive). For the same compound, the GI50 (COLO 205) was > 100 µM (inactive), the GI50 (ACHN) was > 100 µM (inactive) and the GI50 (EKVX) was > 100 µM (inactive). For the same compound, the GI50 (MOLT-4) was > 100 µM (inactive), the GI50 (HT-29) was > 100 µM (inactive) and the GI50 (Malme-3M) was > 100 µM (inactive). The GI50 (K562) was > 100 µM (inactive), the GI50 (SF-539) was > 100 µM (inactive) and the GI50 (HL-60) was 52.5 µM (inactive). For the same compound, the GI50 (UACC-62) was > 100 µM (inactive), the GI50 (IGROV-1) was > 100 µM (inactive) and the GI50 (HOP-92) was 12.6 µM (inactive). The GI50 (NCI-H460) was > 100 µM (inactive), the GI50 (NCI-H226) was > 100 µM (inactive) and the GI50 (SF-295) was > 100 µM (inactive). For the same compound, the GI50 (LOX IMVI) was > 100 µM (inactive), the GI50 (SNB-75) was > 100 µM (inactive) and the GI50 (U-251) was > 100 µM (inactive). For the same compound, the GI50 (M19-MEL) was > 100 µM (inactive), the GI50 (SK-OV-3) was > 100 µM (inactive) and the GI50 (KM-20L2) was > 100 µM (inactive). The GI50 (OVCAR-3) was > 100 µM (inactive), the GI50 (SW-620) was > 100 µM (inactive) and the GI50 (CAKI-1) was > 100 µM (inactive). For the same compound, the GI50 (DMS-114) was > 100 µM (inactive), the GI50 (A498) was > 100 µM (inactive) and the GI50 (RPMI-8226) was 60.5 µM (inactive). For the same compound, the GI50 (TK-10) was > 100 µM (inactive), the GI50 (NCI-H23) was > 100 µM (inactive) and the GI50 (CCRF-CEM) was > 100 µM (inactive). The GI50 (SK-MEL-2) was > 100 µM (inactive), the GI50 (LXFL 529) was > 100 µM (inactive) and the GI50 (DMS-273) was > 100 µM (inactive). For the same compound, the GI50 (SNB-78) was > 100 µM (inactive).
In the case of `COC1C=CC(C(=O)[N+]2=Cc3[nH]c4ccccc4c3CC2)O1` (centres undefined), the GI50 (SN12C) is reported as > 100 µM (inactive), the GI50 (SK-MEL-28) is reported as > 100 µM (inactive) and the GI50 (OVCAR-8) is reported as > 100 µM (inactive). For the same compound, the GI50 (SNB-19) was > 100 µM (inactive), the GI50 (M14) was > 100 µM (inactive) and the GI50 (HCT-15) was 78.5 µM. For the same compound, the GI50 (RXF 393) was 61.5 µM (inactive), the GI50 (UO-31) was > 100 µM (inactive) and the GI50 (RXF 631) was > 100 µM (inactive). For the same compound, the GI50 (HOP-18) was > 100 µM (inactive), the GI50 (SF-268) was > 100 µM (inactive) and the GI50 (SR) was 30.5 µM (inactive). For the same compound, the GI50 (SK-MEL-5) was > 100 µM (inactive), the GI50 (NCI-H522) was 34.9 µM (inactive) and the GI50 (COLO 205) was > 100 µM (inactive). The GI50 (ACHN) was 97.9 µM (inactive), the GI50 (EKVX) was 88.5 µM (inactive) and the GI50 (MOLT-4) was 34.9 µM (inactive). The GI50 (HT-29) was > 100 µM (inactive), the GI50 (Malme-3M) was > 100 µM (inactive) and the GI50 (K562) was 37.2 µM (inactive). The GI50 (SF-539) was > 100 µM (inactive), the GI50 (HL-60) was 32.3 µM (inactive) and the GI50 (UACC-62) was > 100 µM (inactive). The GI50 (A549) was > 100 µM (inactive), the GI50 (IGROV-1) was > 100 µM (inactive) and the GI50 (786-0) was > 100 µM (inactive). The GI50 (HOP-92) was > 100 µM (inactive), the GI50 (NCI-H460) was 69.3 µM (inactive) and the GI50 (UACC-257) was > 100 µM (inactive). The GI50 (NCI-H226) was 80.9 µM (inactive), the GI50 (KM12) was > 100 µM (inactive) and the GI50 (SF-295) was > 100 µM (inactive). For the same compound, the GI50 (LOX IMVI) was > 100 µM (inactive), the GI50 (DLD-1) was > 100 µM (inactive) and the GI50 (SNB-75) was 75.3 µM (inactive). The GI50 (U-251) was 37.9 µM (inactive), the GI50 (HCT-116) was > 100 µM (inactive) and the GI50 (M19-MEL) was > 100 µM (inactive). The GI50 (SK-OV-3) was 52.5 µM (inactive), the GI50 (OVCAR-4) was > 100 µM (inactive) and the GI50 (KM-20L2) was > 100 µM (inactive). The GI50 (OVCAR-3) was 83.4 µM (inactive), the GI50 (SW-620) was > 100 µM (inactive) and the GI50 (CAKI-1) was > 100 µM (inactive). The GI50 (DMS-114) was 66.4 µM (inactive), the GI50 (HCC 2998) was 55.6 µM (inactive) and the GI50 (A498) was > 100 µM (inactive). For the same compound, the GI50 (RPMI-8226) was 71.1 µM (inactive), the GI50 (TK-10) was > 100 µM (inactive) and the GI50 (OVCAR-5) was > 100 µM (inactive). For the same compound, the GI50 (NCI-H23) was > 100 µM (inactive), the GI50 (HOP-62) was > 100 µM (inactive) and the GI50 (CCRF-CEM) was 27.6 µM (inactive). The GI50 (SK-MEL-2) was > 100 µM (inactive), the GI50 (LXFL 529) was 98.2 µM (inactive) and the GI50 (DMS-273) was 82.2 µM (inactive). For the same compound, the GI50 (SNB-78) was > 100 µM (inactive).
